Source: patent US9738591B2, “Antimicrobial compounds” (priority 2009, dated 2017)
Like-named read-outs stand apart in the source and are kept apart here.

Assays:
[1] = test system: Micrococcus luteus ATCC 10240; test: Disk diffusion; details: 10 mg/ml, 20 μl
[2] = test system: Enterococcus faecalis NCTC 775; test: Disk diffusion; details: 10 mg/ml, 20 μl
[3] = test system: Streptococcus pneumoniae strain 12213; test: Disk diffusion; format: cell-based; details: 10 mg/ml, 20 μl
[4] = test system: Bacillus subtilis ATCC 6633; test: Disk diffusion; details: 10 mg/ml, 20 μl
[5] = test system: Aeromonas hydrophila NCTC 8049/ATCC 7966; test: Disk diffusion; details: 10 mg/ml, 20 μl; repeat
[6] = test system: Staphylococcus aureus (methicillin resistant) NCTC 10442; test: Disk diffusion; details: for zone of inhibition at 10000 µg/mL: Staphylococcus aureus
[7] = test system: Yersinia enterocolitica clinical 26609; test: Disk diffusion; details: 10 mg/ml, 20 μl; repeat, strain clinical 26609
[8] = Storage stability of master stock solution; format: physicochemical; details: 10 mg/ml in 100% DMSO, foil-covered glass bottles, −20° C.; results not shown
Procedure: 10 mg/ml stock solution of TSB007 was prepared in 100% DMSO. Master stock solutions of TSB007 (10 mg/ml) were made by dissolving 20 mg dehydrated compound in 2 ml 100% DMSO. They were stored in foil-covered glass bottles at −20° C. Master stocks stored in this way retained full antimicrobial activity for a minimum period of 6 weeks (results not shown).

[9] = test system: L929 cells; test: Cytotoxicity, neutral red assay; format: cell-based; details: for ratio of the well's OD compared to the OD of the negative control, Average (SD) (n = 2): 24 h, ratios ≦0.5 indicate a cytostatic effect
Procedure: L929 cells grown to approximately 80% confluency in HGM-M were washed with Hanks, trypsonised to detach the cells from the flask, then diluted to 10^5 cells/ml in HGM-M and 200 μl used to inoculate the wells of a 96-well microtitre tray. After incubation for 24 h at 37° C., adherent cells were washed with Hanks and then 100 μl HGM-M was added to the wells. Fresh TSB007 master stock solution (10 mg/ml) was serially 10-fold diluted in HGM-M to make solutions of 1000, 100, 10 and 1 μg/ml of TSB007. To the wells of the microtitre tray, 100 μl of these TSB007 solutions were also added, giving final concentrations of 500, 50, 5 and 0.5 μg/ml of TSB007. The same dilutions of DMSO were prepared and tested to check that cytotoxic activity was not due to the DMSO. A negative control was prepared containing only HGM-M, and a positive control was prepared by adding 100 μl of carboplatin (10 mg/ml; Mayne Pharma Pty Ltd, Australia) to wells containing 100 μl HGM-M. Controls and dilutions of TSB007 and DMSO were prepared in duplicate.
After 24 h shaking at 37° C., cytotoxicity was quantified using the neutral red assay. The cells were washed with Hanks then 200 μl HGM-M and 20 μl Neutral Red (3.3 g/L; Sigma-Aldrich) were added to each well. After 2 h shaking at 37° C., cells were washed twice with PBS then 200 μl of 1% acetic acid in 50% EtOH was added to each well to solubilise the stain. After 15 min shaking at 37° C. the OD690 nm of the wells was measured and subtracted from the OD540 nm. Results were then blanked against wells to which no cells had been added, and converted to a ratio of the OD of the negative control. Ratios […] indicated a cytostatic effect. Testing was performed on two separate occasions.

[10] = test system: Proteus mirabilis NCTC 10975; test: Disk diffusion; details: 10 mg/ml, 20 μl; repeat; value printed with '?'
[11] = test system: S. aureus NCTC 6571; test: Time-kill experiments; format: cell-based; details: for effect on viability over the 4 h of the experiment: MHB, 37° C.; for effect on viability over the 4 h of the experiment / viable counts at 24 h: initial 0.5-1.0×10^7 CFU/ml
Procedure: An overnight 10 ml MHB culture of S. aureus NCTC 6571 was diluted to 0.5 McFarland in MHB then 1 ml was used to inoculate each of four 100 ml flasks prepared as follows: • 1) 9.0 ml MHB (control) • 2) 9.99 ml MHB plus 9.7 μl of TSB007 working stock at 2048 μg/ml (1.8 μg/ml) • 3) 9.98 ml MHB plus 19.5 μl of TSB007 working stock at 2048 μg/ml (3.6 μg/ml) • 4) […] MHB plus 256 μl of a TSB007 master stock (320 μg/ml).
The flasks were incubated at 37° C. for 10 min before inoculation. Samples (0.1 ml) were taken immediately after inoculation (time 0) and then at 15, 30, 60, 120 and 240 min. The samples were immediately diluted 10^−1 in 0.01 M phosphate buffered saline at pH 7.0 (PBS). Further 10-fold dilutions in PBS were made down to 10^−4 until the 60 min time point, and then down to 10^−6 for the remaining time points. Viable counts were estimated using 3×20 μl drops from each dilution on MHA which was then incubated at 37° C. overnight before counting. These were normalised against the initial counts from each flask. Testing was performed on three separated occasions.

SMILES: O=C(O)c1ccc(/C=C/c2cc(/C=C/c3ccc(C(=O)O)cc3)cc(/C=C/c3ccc(C(=O)O)cc3)c2)cc1 [TSB007]
- Zone diameters, 24 h TSB007 ([1]; 24 h): 26 trim
- Zone diameters, 48 h TSB007 ([1]; 48 h): 26 trim
- Zone diameters, Repeat Results ([1]; repeat): 32 trim
- Zone diameters, 24 h TSB007 ([2]; 24 h): 10 trim
- Zone diameters, 48 h TSB007 ([2]; 48 h): 10 trim
- Zone diameters, Repeat Results ([2]; repeat): 8 trim
- Zone diameters, Repeat Results [3]: 26 trim
- Zone diameters, 24 h TSB007 ([4]; 24 h): 8 trim
- Zone diameters, 48 h TSB007 ([4]; 48 h): 8 trim
- Zone diameters, Repeat Results [5]: 8 trim
- Zone diameters, 24 h TSB007 ([6]; 10 mg/ml, 20 μl, 24 h): 18 trim
- Zone diameters, 48 h TSB007 ([6]; 10 mg/ml, 20 μl, 48 h): 9 trim
- Zone diameters, Repeat Results ([6]; 10 mg/ml, 20 μl, repeat): 23 trim
- zone of inhibition at 10000 µg/mL ([6]; NCTC10442, 24 h, read-out: Zone diameters, 24 h AnO2): 17 mm
- zone of inhibition at 10000 µg/mL ([6]; NCTC10442, 24 h, read-out: Zone diameters, 24 h O2): 14 mm
- zone of inhibition at 10000 µg/mL ([6]; NCTC10442, 48 h, read-out: Zone diameters, 48 h AnO2): 17 mm
- zone of inhibition at 10000 µg/mL ([6]; NCTC10442, 48 h, read-out: Zone diameters, 48 h O2): 11 mm
- Zone diameters, Repeat Results [7]: 8 trim
- minimum period for which master stocks retained full antimicrobial activity [8]: ≥ 6 weeks
- ratio of the well's OD compared to the OD of the negative control, Average (SD) (n = 2) ([9]; 0.5 μg/ml): 0.846 (0.285)
- ratio of the well's OD compared to the OD of the negative control, Average (SD) (n = 2) ([9]; 5 μg/ml): 0.882 (0.021)
- ratio of the well's OD compared to the OD of the negative control, Average (SD) (n = 2) ([9]; 50 μg/ml): 0.867 (0.030)
- cytostatic effect on L929 cells ([9]; 500 μg/ml): cytostatic
- ratio of the well's OD compared to the OD of the negative control, Average (SD) (n = 2) ([9]; 500 μg/ml): 0.384 (0.009)
- cytostatic effect on L929 cells ([9]; 0.5-50 μg/ml): not significantly cytostatic
- Zone diameters, Repeat Results [10]: 9? trim
- effect on viability over the 4 h of the experiment ([11]; 1.8 μg/ml): inhibitory
- viable counts at 24 h ([11]; 1.8 μg/ml): 10^8 CFU/ml
- effect on viability over the 4 h of the experiment ([11]; 3.6 μg/ml): inhibitory
- viable counts at 24 h ([11]; 3.6 μg/ml): 10^3-10^6 CFU/ml
- viable cells at first time point ([11]; 320 μg/ml (1.25×MBC), 15 min): below the limit of detection
- kill ([11]; 320 μg/ml (1.25×MBC), first time point of 15 min): > 99.9%
